Measured values published in US20080207537A1, “Topical Ungual Formulations” (priority 2005, published 2008).

Assays:
[1] = 14C mannitol nail penetration study (nail diffusion cell); format: in vitro ADME, human; conditions: single penetration enhancer
Method: The single penetration enhancers were made up in the appropriate solvent and spiked with ^14C mannitol (10 μl of the stock ^14C mannitol). When more than one penetration enhancer was applied to the nails, only the last penetration enhancer was spiked with ^14C mannitol prior to nail application. ^14C mannitol with no penetration enhancer was used as a control.
Pre-calibrated nail diffusion cells were assembled with full thickness human nail. The receiver fluid, which consisted of a 20% ethanol/water mixture, was put into the receiver well up to the etched mark on the side arm. A magnetic follower was inserted and the cells were then placed on a magnetic stirrer in a water bath maintained at 32° C. Cells were checked for leakage and air bubbles. […] This was to ensure that no cells contained any residual radioactivity and these readings were also taken as the background for each cell. […]
After taking the background reading (described in the section above) 50 μl of ^3H water (ca. 18000 dpm) was placed on top of the nail in the assembled nail diffusion cell, using a pre-calibrated Gilson pipette. […] This value was used to normalise each nail and, if values of radioactivity were considered too high, then cells were rejected due to leaks. […]

[2] = Redox potential measurement against Ag/AgCl reference electrode; format: physicochemical; conditions: n = 3
[3] = pH of the agent solutions; format: physicochemical; conditions: for Mean pH: n = 3

With `O=C(O)CS` [Thioglycolic acid] the “permeation of 14C mannitol through full thickness human nail” value ([1]; Saturated TA (50%), rank among the enhancers (FIG. 2)) was “best penetration enhancer of mannitol”, the “permeation of 14C mannitol through full thickness human nail” value ([1]; TA 5%, compared to DTT (FIG. 2)) was “drop below that of the DTT” and the “Mean Redox Potential” value ([2]; 0.5M concentration) was −132.8 mV. The Mean Redox Potential ([2]; 5% TA solution, approximate pH 2 (adjusted using NaOH)) was −70.4, the Mean Redox Potential ([2]; 5% TA solution, approximate pH 3 (adjusted using NaOH)) was −133.1 and the Mean Redox Potential ([2]; 5% TA solution, approximate pH 4 (adjusted using NaOH)) was −166.7. For the same compound, the Mean Redox Potential ([2]; 5% TA solution, approximate pH 5 (adjusted using NaOH)) was −179.5, the Mean Redox Potential ([2]; 5% TA solution, approximate pH 6 (adjusted using NaOH)) was −192.9 and the Mean Redox Potential ([2]; 5% TA solution, approximate pH 8 (adjusted using NaOH)) was −272.3. The Mean Redox Potential ([2]; 5% TA solution, approximate pH 10 (adjusted using NaOH)) was −386.5, the Mean Redox Potential ([2]; 5% TA solution, approximate pH 11 (adjusted using NaOH)) was −433.8 and the “Mean Redox Potential” value ([2]; TA concentration 0.001% w/w) was −47.7. For the same compound, the “Mean Redox Potential” value ([2]; TA concentration 0.005% w/w) was −56.6, the “Mean Redox Potential” value ([2]; TA concentration 0.01% w/w) was −67.5 and the “Mean Redox Potential” value ([2]; TA concentration 0.05% w/w) was −85.6. For the same compound, the “Mean Redox Potential” value ([2]; TA concentration 0.1% w/w) was −97.4, the “Mean Redox Potential” value ([2]; TA concentration 1% w/w) was −119.8 and the “Mean Redox Potential” value ([2]; TA concentration 2.5% w/w) was −126.5. For the same compound, the “Mean Redox Potential” value ([2]; TA concentration 5% w/w) was −131.5, the “Mean Redox Potential” value ([2]; TA concentration 7.5% w/w) was −132.7 and the “Mean Redox Potential” value ([2]; TA concentration 10% w/w) was −132.8. The “Mean Redox Potential” value ([2]; TA concentration 20% w/w) was −128.7, the “Mean pH” value ([3]; 0.5M concentration) was 2.13 and the “pH of solution prior to application” value ([3]; 5% concentration, solution applied to nail (FIG. 7)) was 2.12. The “Mean pH” value ([3]; TA concentration 0.001% w/w) was 2.97, the “Mean pH” value ([3]; TA concentration 0.005% w/w) was 3.12 and the “Mean pH” value ([3]; TA concentration 0.01% w/w) was 3.05. The “Mean pH” value ([3]; TA concentration 0.05% w/w) was 2.53, the “Mean pH” value ([3]; TA concentration 0.1% w/w) was 2.66 and the “Mean pH” value ([3]; TA concentration 1% w/w) was 2.23. For the same compound, the “Mean pH” value ([3]; TA concentration 2.5% w/w) was 1.71, the “Mean pH” value ([3]; TA concentration 5% w/w) was 1.85 and the “Mean pH” value ([3]; TA concentration 7.5% w/w) was 1.76. For the same compound, the “Mean pH” value ([3]; TA concentration 10% w/w) was 1.83 and the “Mean pH” value ([3]; TA concentration 20% w/w) was 1.61.
